Series [1] relates to Raji. The series is described as follows: Inhibition of human Raji cell proliferation assessed as [3H]thymidine incorporation after 3 days by scintillation counting. Type of series: functional, cell-based.
The subject of series [2] is WISH. The series is described as follows: Inhibition of human WISH cell proliferation assessed as [3H]thymidine incorporation after 3 days by scintillation counting. Type of series: functional, cell-based.
The subject of series [3] is K562. The series is described as follows: Inhibition of human K562 cell proliferation assessed as [3H]thymidine incorporation after 3 days by scintillation counting. The series is classed as functional, cell-based.
The subject of series [4] is Calu-1. The series is described as follows: Inhibition of human Calu1 cell proliferation assessed as [3H]thymidine incorporation after 3 days by scintillation counting. The series is classed as functional, cell-based.
Series [5] has as its system HeLa. The series is described as follows: Inhibition of human HeLa cell proliferation assessed as [3H]thymidine incorporation after 3 days by scintillation counting. The series is classed as functional, cell-based.
The subject of series [6] is Vero. The series is described as follows: Inhibition of african green monkey Vero cell proliferation assessed as [3H]thymidine incorporation after 3 days by scintillation counting. The settings on record: Chlorocebus sabaeus. The series is classed as cell-based.
Series [7] relates to Raji. The series can be described thus: Growth inhibition of human Raji cells assessed as [3H]thymidine incorporation at 12.5 uM after 3 days by scintillation counting. Type of series: functional. The settings on record: read-out: GI.
Series [8] has as its system Calu-1. The series can be described thus: Growth inhibition of human Calu1 cells assessed as [3H]thymidine incorporation at 50 uM after 3 days by scintillation counting. The settings on record: read-out: GI. The series is classed as functional.
The subject of series [9] is HeLa. The series is described as follows: Growth inhibition of human HeLa cells assessed as [3H]thymidine incorporation at 6.25 uM after 3 days by scintillation counting. Type of series: functional. Particulars: read-out: GI.
The subject of series [10] is Calu-1. The series can be described thus: Growth inhibition of human Calu1 cells assessed as [3H]thymidine incorporation at 12.5 uM after 3 days by scintillation counting. Type of series: functional. Particulars: read-out: GI.
Series [11] concerns HeLa. The series can be described thus: Growth inhibition of human HeLa cells assessed as [3H]thymidine incorporation at 25 uM after 3 days by scintillation counting. Type of series: functional. Particulars: read-out: GI.
In series [12] the test system is Calu-1. The series is described as follows: Growth inhibition of human Calu1 cells assessed as [3H]thymidine incorporation at 6.25 uM after 3 days by scintillation counting. The series is classed as functional. The settings on record: read-out: GI.
In series [13] the test system is Raji. The series can be described thus: Growth inhibition of human Raji cells assessed as [3H]thymidine incorporation at 50 uM after 3 days by scintillation counting. The series is classed as functional. Particulars: read-out: GI.
Series [14] concerns WISH. The series can be described thus: Growth inhibition of human WISH cells assessed as [3H]thymidine incorporation at 100 uM after 3 days by scintillation counting. Type of series: functional. Particulars: read-out: GI.
A short description of series [15]: Growth inhibition of african green monkey Vero cells assessed as [3H]thymidine incorporation at 50 uM after 3 days by scintillation counting. The series is classed as cell-based. Particulars: chlorocebus sabaeus, read-out: GI.
In series [16] the test system is WISH. The series is described as follows: Growth inhibition of human WISH cells assessed as [3H]thymidine incorporation at 50 uM after 3 days by scintillation counting. Type of series: functional. The settings on record: read-out: GI.
The subject of series [17] is Vero. The series can be described thus: Growth inhibition of african green monkey Vero cells assessed as [3H]thymidine incorporation at 12.5 uM after 3 days by scintillation counting. The settings on record: chlorocebus sabaeus, 72 h. Type of series: cell-based.
Series [18] can be described thus: Growth inhibition of african green monkey Vero cells assessed as [3H]thymidine incorporation at 25 uM after 3 days by scintillation counting. The settings on record: chlorocebus sabaeus, read-out: GI. Type of series: cell-based.
The test system of series [19] is HeLa. The series can be described thus: Growth inhibition of human HeLa cells assessed as [3H]thymidine incorporation at 100 uM after 3 days by scintillation counting. Type of series: functional. Particulars: read-out: GI.
Series [20] concerns Raji. The series is described as follows: Growth inhibition of human Raji cells assessed as [3H]thymidine incorporation at 100 uM after 3 days by scintillation counting. Particulars: read-out: GI. Type of series: functional.
In series [21] the test system is HeLa. The series can be described thus: Growth inhibition of human HeLa cells assessed as [3H]thymidine incorporation at 12.5 uM after 3 days by scintillation counting. Particulars: read-out: GI. The series is classed as functional.
The subject of series [22] is Calu-1. The series can be described thus: Growth inhibition of human Calu1 cells assessed as [3H]thymidine incorporation at 25 uM after 3 days by scintillation counting. Type of series: functional. The settings on record: read-out: GI.
The subject of series [23] is HeLa. The series can be described thus: Growth inhibition of human HeLa cells assessed as [3H]thymidine incorporation at 50 uM after 3 days by scintillation counting. Type of series: functional. The settings on record: read-out: GI.
Series [24] concerns Raji. The series is described as follows: Growth inhibition of human Raji cells assessed as [3H]thymidine incorporation at 25 uM after 3 days by scintillation counting. The series is classed as functional. Particulars: read-out: GI.
A short description of series [25]: Growth inhibition of african green monkey Vero cells assessed as [3H]thymidine incorporation at 100 uM after 3 days by scintillation counting. Type of series: cell-based. Particulars: chlorocebus sabaeus, read-out: GI.
The test system of series [26] is WISH. The series can be described thus: Growth inhibition of human WISH cells assessed as [3H]thymidine incorporation at 12.5 uM after 3 days by scintillation counting. Type of series: functional. Particulars: read-out: GI.
Series [27] concerns WISH. The series can be described thus: Growth inhibition of human WISH cells assessed as [3H]thymidine incorporation at 25 uM after 3 days by scintillation counting. The series is classed as functional. The settings on record: read-out: GI.
Series [28] deals with K562. The series can be described thus: Growth inhibition of human K562 cells assessed as [3H]thymidine incorporation at 100 uM after 3 days by scintillation counting. The series is classed as functional. Particulars: read-out: GI.
Series [29] relates to WISH. The series can be described thus: Growth inhibition of human WISH cells assessed as [3H]thymidine incorporation at 6.25 uM after 3 days by scintillation counting. Type of series: functional. Particulars: read-out: GI.
Series [30] is described as follows: Growth inhibition of african green monkey Vero cells assessed as [3H]thymidine incorporation at 6.25 uM after 3 days by scintillation counting. The settings on record: chlorocebus sabaeus, read-out: GI. Type of series: cell-based.
The test system of series [31] is Raji. The series can be described thus: Growth inhibition of human Raji cells assessed as [3H]thymidine incorporation at 6.25 uM after 3 days by scintillation counting. The series is classed as functional. The settings on record: read-out: GI.
For series [32], the system named is Calu-1. The series can be described thus: Growth inhibition of human Calu1 cells assessed as [3H]thymidine incorporation at 100 uM after 3 days by scintillation counting. Type of series: functional. The settings on record: read-out: GI.

Molecules are shown by their SMILES.

With `Cc1cc(O)c2c(c1O)C(=O)c1cccc(O)c1C2=O` [ISLANDICIN], the IC50 with Raji [1], in the series with WISH [2], in the series with K562 [3], in the series on Calu-1 [4], in the series on HeLa [5] and in the series with Vero [6] was more than 100 µM each time.

As for `Cc1cc(O)c2c(c1)C(=O)c1cc(O)cc(O)c1C2=O` [EMODIN], the inhibition of growth at 12.5 µM with Raji [7] was 41.2%; with Calu-1 [10], 60.6%; in the series on HeLa [21] it was 41.9%; with WISH [26], 22%. Also, the IC50 with Raji [1] was 43.8 µM; in the series with WISH [2] it was 28.8 µM; with K562 [3], more than 100 µM; with Calu-1 [4], 6.25 µM; in the series with HeLa [5], 15.6 µM; in the series with Vero [6] it was 40 µM. The inhibition of growth at 50 µM in the series on Calu-1 [8] is 100%; in the series on Raji [13] it was 47.2%; in the series on WISH [16] it was 63.3%; in the series with HeLa [23], 100%. For the same molecule, the inhibition of growth at 6.25 µM in the series on HeLa [9] is 24.7%; in the series on Calu-1 [12], 49.4%; in the series on WISH [29], 8.7%; in the series with Raji [31], 0.3%. In addition, the inhibition of growth at 25 µM in the series with HeLa [11] was 78.3%; in the series with Calu-1 [22], 100%; in the series on Raji [24], 45.8%; in the series on WISH [27], 61.9%. The inhibition of growth at 100 µM in the series on WISH [14] is 80.7%; in the series with HeLa [19], 100%; in the series with Raji [20], 100%; in the series with K562 [28], 29.5%; in the series on Calu-1 [32], 100%. Further, in series [15], the inhibition at 72 h, 50 µM was determined as 64.4%. Further, the “growth inhibition (GI)” value with Vero [17] was determined as 13.7%. The inhibition at 72 h, 25 µM in series [18] amounted to 26.7%. Besides, the inhibition at 72 h, 100 µM in [25] is 69.1%. Moreover, the inhibition at 72 h, 6.25 µM in [30] was found to be 3.3%.

As for `C=C(C)[C@@H]1CC[C@]2(C)CC[C@]3(C)[C@H](CC[C@@H]4[C@@]5(C)CC[C@H](O)C(C)(C)[C@@H]5CC[C@]43C)[C@@H]12` [LUPEOL], the IC50 in the series on Raji [1], with WISH [2], with K562 [3], in the series with Calu-1 [4], in the series with HeLa [5] and in the series on Vero [6] was more than 100 µM each time.

Turning to `COc1cc(C)c(O)c2c1C(=O)c1c(O)cccc1C2=O`, the IC50 in the series with Raji [1], in the series with WISH [2], in the series with K562 [3], with Calu-1 [4], in the series with HeLa [5] and with Vero [6] was more than 100 µM throughout.

With `COc1cc(O)c2c(c1)C(=O)c1c(O)c(C)cc(O)c1C2=O` [PARIETIN], the IC50 with Raji [1], with WISH [2], in the series with K562 [3], in the series with Calu-1 [4], in the series with HeLa [5] and with Vero [6] was more than 100 µM in each case.

Take `Cc1cc(O)c2c(c1)C(=O)c1cccc(O)c1C2=O` [CHRYSOPHANOL]: the IC50 in the series with Raji [1], with WISH [2], with K562 [3], in the series with Calu-1 [4], in the series with HeLa [5] and in the series with Vero [6] was more than 100 µM each time.

Regarding `COC1=C(O)C(=O)c2c(O)c3c(c(OC)c2C1=O)CC(C)OC3C` (centres undefined) [VENTILOQUINONE K], the IC50 in the series with Raji [1], in the series with WISH [2], in the series on K562 [3], in the series with Calu-1 [4], in the series on HeLa [5] and in the series with Vero [6] was more than 100 µM throughout.

On to `CC1(C)CC[C@]2(C)CC=C3[C@]4(C)CC[C@H]5C(C)(C)[C@@H](O)CC[C@]5(C)[C@H]4CC[C@@]3(C)[C@@H]2C1` [TARAXEROL], for which the IC50 in the series on Raji [1], in the series on WISH [2], in the series on K562 [3], in the series on Calu-1 [4], in the series on HeLa [5] and in the series on Vero [6] was more than 100 µM each time.

Turning to `COc1c(O)cc2c(c1OC)C(=O)c1c(cc(C)c(O)c1O)C2=O`, the IC50 in the series on Raji [1], in the series with WISH [2], with K562 [3], with Calu-1 [4], with HeLa [5] and in the series with Vero [6] was more than 100 µM throughout.

For the molecule `O=C1c2c(O)cc(O)cc2O[C@H](c2ccc(O)cc2)[C@H]1O` [DIHYDROKAEMPFEROL], the IC50 in the series on Raji [1], in the series with WISH [2], in the series on K562 [3], in the series on Calu-1 [4], in the series with HeLa [5] and in the series on Vero [6] was more than 100 µM each time.

As for `Cc1cc(O)c2c(c1O)C(=O)c1cc(O)cc(O)c1C2=O` [CATENARIN], the IC50 in the series with Raji [1], with WISH [2], in the series with K562 [3], with Calu-1 [4], with HeLa [5] and with Vero [6] was more than 100 µM in each case.

As for `COC1=C(O)C(=O)c2c(cc3c(c2O)C(C)OC(C)C3)C1=O` (centres undefined) [VENTILOQUINONE I], the half-maximal inhibitory concentration (IC50) in the series on Raji [1], with WISH [2], in the series with K562 [3], in the series with Calu-1 [4], in the series on HeLa [5] and with Vero [6] was more than 100 µM throughout.

As to `CC[C@H](/C=C/[C@@H](C)[C@H]1CC[C@H]2[C@@H]3CC=C4C[C@@H](O)CC[C@]4(C)[C@H]3CC[C@]12C)C(C)C` [STIGMASTEROL], the concentration for half-maximal inhibition (IC50) with Raji [1], with WISH [2], with K562 [3], in the series with Calu-1 [4], in the series on HeLa [5] and with Vero [6] was more than 100 µM in each case.

These data come from ChEMBL document CHEMBL1150850, “Cytotoxic principles from Ventilago leiocarpa” (J Nat Prod, 2001).
